Data set [1] relates to Influenza virus A/Duck/Alberta/60/67 H12N5. It is filed as binding.
The test system of data set [2] is Influenza virus A/NIB/44/90M H3N2. Description: Fetuin binding inhibition (FBI) test, inhibition of viral cell adhesion. To be noted: for Relative activity: FBI test, Neu5AcαBn as reference compound (=1), specific activity per Neu5Ac group; for pKd: inhibitor virus complex.
Data set [3] can be described thus: Gel permeation chromatography of aggregates. It is filed as physicochemical. To be noted: for Aggregate, %: determined by gel permeation chromatography. The source says: (§1) The formation of aggregates in solution can be observed by light scattering experiments or by gel permeation chromatography.
The compound of the general formula (I) Neu5Ac-Gab-ACm-Ad-Gly5-NHCH2-]4C (m=1-3) associates at room temperature in aqueous and organic solvents.
Silica gel 60 (40-63 μm) (Merck) was used for column chromatography. Sephadex of types LH-20, G-10, G-25 (Pharmacia, Sweden) and TSK-4000 (HPLC) were used for gel permeation chromatography.

In data set [4] the test system is PK15 cells. The following applies: read-out: Concentration at which 50% inhibition of cytotoxicity was achieved, human serum, 10% rabbit serum complement.
For data set [5], the system named is influenza virus strain A/NIB/H1N1/89M. Nature of the data set: FBI test, inhibition of viral adhesion (Table 9). To be noted: 6'SLN as reference compound (=1).
Data set [6] is described as follows: Light scattering, particle size of aggregates. It counts as physicochemical. The procedure: as §1
The light scattering experiments were carried out using the following apparatus: Coultronics Coulter N4-MD (He-Ne laser, λ=632.8 nm, measurement of the scattering at an angle of 62.5° to the incident light beam), Spectra-Physics 164 (argon laser, λ=528.7 nm and λ=611.5 nm, measurement of the scattering at an angle of 90° to the incident light beam).
The investigation into the light scattering of a 50 mM solution of compound (22a) in water was carried out using a Spectra-Physics 164 argon laser (plasma lines λ=528.7 and 611.5 nm), the scattering was measured at an angle of 90° to the incident light beam. The particle size thereby determined was <2.5 nm. 50 μl of 0.8M NaHCO3 solution were added to the resulting solution. The light scattering was measured, as described above, the average particle size thereby determined was 200-400 nm.
50 μl of a 0.8M HCl was added to the resulting solution, and the sample was investigated by means of light scattering, as described above. The particle size thereby determined was <2.5 nm.

pIC50, pKd: −log10 of the molar value. Like-named read-outs stand apart in the source and are kept apart here.

As to “{[Neu5Acα2-3Galβ1-4Glcβ1-NHCOCH2NH—CO(CH2)4CO—(NHCH2CO)5—NHCH2—]4C}x [Compound 50]”, in data set [1], the pKd (usually the negative decadic logarithm of the Kd, by convention in mol/L) was 6.00 and the Relative activity is 20.
The compound “[Neu5Ac-Gab-AC-Ad-Gly5-NHCH2-]4C [Compound 45]” displayed a Relative activity in data set [2] of 15. Further, the pKd in data set [2] (fetuin binding assay) is 5.15. Further, the “Aggregate, %” value in data set [3] is given as 12%.
Take `OC[C@H]1O[C@H](O[C@H]2[C@@H](O)[C@@H](CO)OC(O)[C@@H]2O)[C@H](O)[C@@H](O)[C@H]1O` (some centres unmarked) [Galα1-3Gal, reference compound]: in data set [4], the pIC50 is 3.70.
Take “[Neu5Ac-Gab-AC3-Ad-Gly5-NHCH2-]4C [Compound 47]”: the Relative activity in data set [2] turned out to be 1000. The pKd in data set [2] (fetuin binding assay) is 7.00. Moreover, the “Aggregate, %” value in data set [3] is 96%.
The compound `CC(=O)N[C@H]1[C@H]([C@H](O)[C@H](O)CO)O[C@](OC[C@H]2O[C@@H](O[C@H]3[C@H](O)[C@@H](NC(C)=O)C(O)O[C@@H]3CO)[C@H](O)[C@@H](O)[C@H]2O)(C(=O)O)C[C@@H]1O` (some centres unmarked) [6'SLN, reference compound] displayed a Relative activity in data set [5] of 1.
In data set [2], “[Neu5Acα-OCH2(p-C6H4)NHCOCH2NH—CO(CH2)4CO—(NH(CH2)5CO)3—(NHCH2CO)5—NHCH2—]4C [Compound 44]” displayed a Relative activity of 2500. Moreover, in data set [2] (fetuin binding assay), the “Increase in specific activity in comparison with free ligand Neu5AcαBn” value was “more than three orders of magnitude” and the negative logarithm of the Kd (pKd) was 7.40. Also, the “Aggregate, %” value in data set [3] amounted to 54%.
“[6′-SLN-Ap-Ad-AC2-Gly5-NHCH2]4C [Compound 54]” came in with a Relative activity in data set [5] of 1000.
Regarding [HCl.H-Gly7-NHCH2-]4C [Compound 22a], the Particle size in data set [6] (50 mM solution in water) and in data set [6] (after subsequent addition of 50 μl 0.8M HCl) was under 2.5 nm throughout. Moreover, the Association state result in data set [6] (after addition of 0.8M NaHCO3 solution) is “self-association of the compound is achieved”; in data set [6] (water at 20° C.), “non-associated form”. Also, the Average particle size in data set [6] (after addition of 50 μl 0.8M NaHCO3 solution) was 200-400 nm.
Turning to “[Neu5Ac-Gab-AC2-Ad-Gly5-NHCH2-]4C [Compound 46]”, in data set [2], the Relative activity was found to be 330. The compound also had a pKd in data set [2] (fetuin binding assay) of 6.52. The “Aggregate, %” value in data set [3] was 92%.
As for `O=C(CCCCCNC(=O)CCCCCNC(=O)CCCCC(=O)NCCCO[C@@H]1O[C@H](CO)[C@H](O)[C@H](O[C@H]2O[C@H](CO)[C@H](O)[C@H](O)[C@H]2O)[C@H]1O)NCCCCCC(=O)NCC(=O)NCC(=O)NCC(=O)NCC(=O)NCC(=O)NCC(CNC(=O)CNC(=O)CNC(=O)CNC(=O)CNC(=O)CNC(=O)CCCCCNC(=O)CCCCCNC(=O)CCCCCNC(=O)CCCCC(=O)NCCCO[C@@H]1O[C@H](CO)[C@H](O)[C@H](O[C@H]2O[C@H](CO)[C@H](O)[C@H](O)[C@H]2O)[C@H]1O)(CNC(=O)CNC(=O)CNC(=O)CNC(=O)CNC(=O)CNC(=O)CCCCCNC(=O)CCCCCNC(=O)CCCCCNC(=O)CCCCC(=O)NCCCO[C@@H]1O[C@H](CO)[C@H](O)[C@H](O[C@H]2O[C@H](CO)[C@H](O)[C@H](O)[C@H]2O)[C@H]1O)CNC(=O)CNC(=O)CNC(=O)CNC(=O)CNC(=O)CNC(=O)CCCCCNC(=O)CCCCCNC(=O)CCCCCNC(=O)CCCCC(=O)NCCCO[C@@H]1O[C@H](CO)[C@H](O)[C@H](O[C@H]2O[C@H](CO)[C@H](O)[C@H](O)[C@H]2O)[C@H]1O` [Compound 49, {Galα1-3Galβ1-O(CH2)3NH—CO(CH2)4CO—(NH(CH2)5CO)3—(NHCH2CO)5—NHCH2—]4C}x], the pIC50 in data set [4] is 6.30.
For the compound “{[Neu5Acα2-3Galβ1-4Glcβ1-NHCOCH2NH—CO(CH2)4CO—(NHCH2CO)7—NHCH2—]4C}x [Compound 51]”, in data set [1], the pKd is 7.00 and the Relative activity turned out to be 200.
As to `CC(=O)N[C@@H]1[C@@H](O)[C@H](O[C@@H]2O[C@H](CO[C@]3(C(=O)O)C[C@H](O)[C@@H](NC(C)=O)[C@H]([C@H](O)[C@H](O)CO)O3)[C@H](O)[C@H](O)[C@H]2O)[C@@H](CO)O[C@H]1NC(=O)CNC(=O)CCCCC(=O)NCC(=O)NCC(=O)NCC(=O)NCC(CNC(=O)CNC(=O)CNC(=O)CNC(=O)CCCCC(=O)NCC(=O)N[C@@H]1O[C@H](CO)[C@@H](O[C@@H]2O[C@H](CO[C@]3(C(=O)O)C[C@H](O)[C@@H](NC(C)=O)[C@H]([C@H](O)[C@H](O)CO)O3)[C@H](O)[C@H](O)[C@H]2O)[C@H](O)[C@H]1NC(C)=O)(CNC(=O)CNC(=O)CNC(=O)CNC(=O)CCCCC(=O)NCC(=O)N[C@@H]1O[C@H](CO)[C@@H](O[C@@H]2O[C@H](CO[C@]3(C(=O)O)C[C@H](O)[C@@H](NC(C)=O)[C@H]([C@H](O)[C@H](O)CO)O3)[C@H](O)[C@H](O)[C@H]2O)[C@H](O)[C@H]1NC(C)=O)CNC(=O)CNC(=O)CNC(=O)CNC(=O)CCCCC(=O)NCC(=O)N[C@@H]1O[C@H](CO)[C@@H](O[C@@H]2O[C@H](CO[C@]3(C(=O)O)C[C@H](O)[C@@H](NC(C)=O)[C@H]([C@H](O)[C@H](O)CO)O3)[C@H](O)[C@H](O)[C@H]2O)[C@H](O)[C@H]1NC(C)=O` [{Neu5Acα2-6Galβ1-4GlcNAcβ1-NHCOCH2NH—CO(CH2)4CO—(NHCH2CO)3—NHCH2—}4C, reference compound], the “Gel permeation HPLC peaks” value in data set [3] (TSK-4000 column, 0.2M NaCl) was “only one peak is observed, which corresponds to the molecular weight of the monomer”.
In data set [5], “[6′SLN-Ap-Ad-Gly7-NHCH2]4C [Compound 53]” came in with a Relative activity of 100.
As to `CC(=O)N[C@H]1[C@H]([C@H](O)[C@H](O)CO)O[C@@](OCc2ccccc2)(C(=O)O)C[C@@H]1O` [Neu5Acα-OBn, reference compound], in data set [2], the Relative activity was 1. Besides, the pKd in data set [2] (fetuin binding assay) is 4.00.
The compound “[Neu5Ac-Gab-Ad-AC2-Gly5-NHCH2-]4C [Compound 43]” came in with a Relative activity in data set [2] of 1000. In data set [2] (fetuin binding assay), the pKd was 7.00. Besides, the “Aggregate, %” value in data set [3] was found to be 6%.
In data set [1] (FBI test, 3'SL as reference compound (=1), specific activity per 3'SL group), `CC(=O)N[C@H]1[C@H]([C@H](O)[C@H](O)CO)O[C@@](O[C@H]2[C@@H](O)[C@@H](CO)O[C@@H](O[C@H]3[C@H](O)[C@@H](O)C(O)O[C@@H]3CO)[C@@H]2O)(C(=O)O)C[C@@H]1O` (some centres unmarked) [3'SL, reference compound] yielded a Relative activity of 1. The pKd in data set [1] (fetuin binding assay, inhibitor virus complex) is 4.70.
“{[Neu5Acα-OCH2(p-C6H4)NHCOCH2NH—CO(CH2)4CO—(NHCH2CO)7—NHCH2—]4C} [Compound 48]” gave a pKd in data set [2] (fetuin binding assay) of 7.00. For the same compound, the “Particle size of aggregates” value in data set [6] (water, 60° C.) was “up to 8000 nm”. In addition, the Relative activity in data set [5] is listed as under 0.2.

The values above are taken from patent US7294615B1, “Compounds that associate on the intermolecular level and aggregate bodies that contain them” (priority 1999, dated 2007).
